This passage reports IC50 results from ChEMBL document CHEMBL4390711, “New phenylpropanoid allopyranosides from the rhizomes of Cimicifuga dahurica” (Bioorg Med Chem Lett, 2019).

In this assay the test system is RAW264.7. The assay is described as follows: Antiinflammatory activity against mouse RAW264.7 cells assessed as inhibition of LPS-induced PGE2 production preincubated for 1 hr followed by LPS-stimulation and measured after 18 hrs. It counts as functional, cell-based.
One may read the IC50 as the midpoint of a concentration-inhibition curve. As for `COc1cc(/C=C/C(=O)NCCc2ccc(O)c(O)c2)ccc1O` [N-TRANS-FERULOYLDOPAMINE], the IC50 worked out at 39.9 µM. `COc1cc(/C=C/C(=O)O[C@H](C(=O)O)[C@](O)(Cc2ccc(O)cc2)C(=O)O)ccc1O` [CIMICIFUGIC ACID E]: the IC50 was 19.7 µM. Turning to `C[C@]12CCC(=O)C=C1CC[C@@H]1[C@@H]2[C@@H](O)C[C@@]2(C)[C@H]1CC[C@]2(O)C(=O)CO` [HYDROCORTISONE], the IC50 was 5.5 µM.

With `COc1cc(/C=C/C(=O)NCCc2ccc(O)cc2)ccc1O` [N-TRANS-FERULOYL TYRAMINE], the IC50 was found to be 6.33 µM.
